Experimental data reported in patent US10100036B2, “Lappaconitine aza-cinnamic acid derivatives with anti-tumor activities and a method of preparing the same” (priority 2016, dated 2018).

How the values were obtained:
[1] = test system: human lung cancer cell (A-549); test: tumor cell proliferation inhibition test, MTT method; type: cell-based; conditions: 48 hours treatment, A549
Procedure: (§1) The compounds of the present invention were subjected to tumor cell proliferation inhibition test, and the conventional MTT method was used as the test method.
(§2) Cell lines selected are human prostate cancer cell line (PC-3), human gastric adenocarcinoma cell line (SGC-7901), and human lung cancer cell (A-549). The culture medium was DMEM+15% NBS+double antibody.
(§3) Preparation of the sample solutions: compounds were dissolved in DMSO (Merck), and PBS (−) was add to 100 μL of the solution or homogeneous suspension. The solution or suspension was diluted with DMSO and PBS(−) to final concentrations of 0.1, 1, 10, 20, 40, 60, 80, 100 μmol/L.
(§4) Anti-tumor agent 5-fluorouracil (5-FU) was used as control and was prepared in the same way as the compounds.
(§5) Living cells mitochondria in the dehydrogenase can reduce yellow MTT to water-insoluble blue-violet product MT (MTT formazan), deposited in the cells. The amount of production is proportional to the number of living cells. […] DMSO can dissolve blue violet crystals, and the color depth is proportional to the amount contained, so the absorbance measured by the microplate reader can reflect the cell viability.
(§6) The exponential phase cells were digested and counted and seeded in 96-well plates at a density of 2×10^4/mL at 100 μl per well. After 24 hours of incubation, the cells to be tested were treated with 0.1, 1, 10, 20, 40, 60, 80, 100 μmol/L of the compounds. Each experimental group had 5 wells in each concentration, and the culture medium containing 0.4% DMSO was used as control. After 48 hours, the supernatant was discarded, and 100 μl of MTT ((2-(4,5-dimethyl-2-thiazolyl)-3,5-diphenyl-2H-tetrazole hydrobromide) (1 mg/mL) was added to each well. After another 4 hours, the supernatant was discarded, and 100 μL of DMSO was added to each well. After mixing, the absorbance was measured at 570 nm using a microplate reader. An IC50 calculation software was used to determine the half inhibitory concentration (IC50).

[2] = test system: human prostate cancer cell line (PC-3); test: as above; type: cell-based; conditions: 48 hours treatment
Procedure: as §1, §2, §3, §4, §5, §6

[3] = test system: human gastric adenocarcinoma cell line (SGC-7901); test: as above; type: cell-based; conditions: 48 hours treatment
Procedure: as §1, §2, §3, §4, §5, §6

[4] = test system: PC-3, SGC-7901 and A-549 tumor cells; test: tumor cell proliferation inhibition test, summary over the three cell lines; type: cell-based, human; conditions: in the 3 cell lines tested
Procedure: as §1, §2, §6

**Q.** With `CCN1C[C@]2(OC(=O)c3ccccc3NC(=O)/C=C/c3ccncc3)CC[C@H](OC)[C@]34C1[C@@H](C[C@H]23)[C@@]1(O)C[C@H](OC)C[C@H]2C[C@@H]4[C@]1(O)[C@H]2OC` [Compound 1] as the molecule, how does the IC50 [1] read?
**A.** 9.12 ± 2.53 µM

**Q.** What about the IC50 [2] of the same molecule?
**A.** 18.1 ± 0.64 µM

**Q.** And the IC50 [3]?
**A.** 22.5 ± 1.35 µM

**Q.** For `CCN1C[C@]2(OC(=O)c3ccccc3NC(=O)/C=C/c3cccnc3)CC[C@H](OC)[C@]34C1[C@@H](C[C@H]23)[C@@]1(O)C[C@H](OC)C[C@H]2C[C@@H]4[C@]1(O)[C@H]2OC` [Compound 2], which IC50 [1] is on record?
**A.** 13.4 ± 2.78 µM

**Q.** What about the IC50 [2] of the same molecule?
**A.** 26.4 ± 0.36 µM

**Q.** And the IC50 [3]?
**A.** 26.3 ± 0.37 µM

**Q.** Which results are given for `CCN1C[C@]2(OC(=O)c3ccccc3NC(=O)/C=C/c3ccccn3)CC[C@H](OC)[C@]34C1[C@@H](C[C@H]23)[C@@]1(O)C[C@H](OC)C[C@H]2C[C@@H]4[C@]1(O)[C@H]2OC` [Compound 3]?
**A.** IC50 [2]: 15.2 ± 1.18 µM; IC50 [3]: 13.7 ± 1.28 µM

**Q.** For `CCN1C[C@]2(OC(=O)c3ccccc3NC(=O)/C=C(\C)c3cccnc3)CC[C@H](OC)[C@]34C1[C@@H](C[C@H]23)[C@@]1(O)C[C@H](OC)C[C@H]2C[C@@H]4[C@]1(O)[C@H]2OC` [Compound 4], which IC50 [1] is on record?
**A.** 67.31 ± 0.44 µM

**Q.** What about the IC50 [2] of the same molecule?
**A.** > 100 µM

**Q.** What about the IC50 [3] of the same molecule?
**A.** > 100 µM

**Q.** For `O=c1[nH]cc(F)c(=O)[nH]1` [Compound 5-FU, 5-fluorouracil, reference compound], which IC50 [1] is on record?
**A.** 15.6 ± 3.54 µM

**Q.** What about the IC50 [2] of the same molecule?
**A.** 8.17 ± 0.39 µM

**Q.** And the IC50 [3]?
**A.** 22.4 ± 1.67 µM

**Q.** For `CCN1C[C@]2(OC(=O)c3ccccc3NC(=O)/C=C/c3cncc(C)c3)CC[C@H](OC)[C@]34C1[C@@H](C[C@H]23)[C@@]1(O)C[C@H](OC)C[C@H]2C[C@@H]4[C@]1(O)[C@H]2OC` [Compound 5], which IC50 [1] is on record?
**A.** 13.2 ± 0.39 µM

**Q.** And the IC50 [2]?
**A.** 11.3 ± 0.64 µM

**Q.** And the IC50 [3]?
**A.** 29.6 ± 3.54 µM

**Q.** What about the “activities compared with 5-fluorouracil” value [4] of the same molecule?
**A.** equal or better activities than 5-fluorouracil

**Q.** For `CCN1C[C@]2(OC(=O)c3ccccc3NC(=O)/C=C/c3cnccc3C)CC[C@H](OC)[C@]34C1[C@@H](C[C@H]23)[C@@]1(O)C[C@H](OC)C[C@H]2C[C@@H]4[C@]1(O)[C@H]2OC` [Compound 6], which IC50 [1] is on record?
**A.** 42.65 ± 0.38 µM

**Q.** What about the IC50 [2] of the same molecule?
**A.** 33.5 ± 1.17 µM

**Q.** What about the IC50 [3] of the same molecule?
**A.** 37.8 ± 0.42 µM

**Q.** Which IC50 [1] does the source give for `CCN1C[C@]2(OC(=O)c3ccccc3NC(=O)/C=C/c3ccc(C)nc3)CC[C@H](OC)[C@]34C1[C@@H](C[C@H]23)[C@@]1(O)C[C@H](OC)C[C@H]2C[C@@H]4[C@]1(O)[C@H]2OC` [Compound 7] here?
**A.** 47.31 ± 0.44 µM

**Q.** And the IC50 [2]?
**A.** 43.3 ± 1.42 µM

**Q.** What about the IC50 [3] of the same molecule?
**A.** 39.3 ± 1.74 µM

**Q.** What does the source list for `CCc1cncc(/C=C/C(=O)Nc2ccccc2C(=O)O[C@@]23CC[C@H](OC)[C@]45C([C@@H](C[C@H]24)[C@@]2(O)C[C@H](OC)C[C@H]4C[C@@H]5[C@]2(O)[C@H]4OC)N(CC)C3)c1` [Compound 8]?
**A.** IC50 [1]: 25.1 ± 2.23 µM; IC50 [2]: 38.1 ± 0.44 µM; IC50 [3]: 33.5 ± 1.18 µM

**Q.** With `CCN1C[C@]2(OC(=O)c3ccccc3NC(=O)/C=C(\C)c3ccncc3)CC[C@H](OC)[C@]34C1[C@@H](C[C@H]23)[C@@]1(O)C[C@H](OC)C[C@H]2C[C@@H]4[C@]1(O)[C@H]2OC` [Compound 9] as the molecule, how does the IC50 [1] read?
**A.** > 100 µM

**Q.** What about the IC50 [2] of the same molecule?
**A.** 73.37 ± 0.69 µM

**Q.** What about the IC50 [3] of the same molecule?
**A.** > 100 µM

**Q.** `CCN1C[C@]2(OC(=O)c3ccccc3NC(=O)/C(C)=C/c3ccncc3)CC[C@H](OC)[C@]34C1[C@@H](C[C@H]23)[C@@]1(O)C[C@H](OC)C[C@H]2C[C@@H]4[C@]1(O)[C@H]2OC` [Compound 10] was tested. Which IC50 [1] did it give?
**A.** > 100 µM

**Q.** What about the IC50 [2] of the same molecule?
**A.** > 100 µM

**Q.** What about the IC50 [3] of the same molecule?
**A.** > 100 µM

**Q.** What does the source list for `CCN1C[C@]2(OC(=O)c3ccccc3NC(=O)/C=C/c3ccnc(C)c3)CC[C@H](OC)[C@]34C1[C@@H](C[C@H]23)[C@@]1(O)C[C@H](OC)C[C@H]2C[C@@H]4[C@]1(O)[C@H]2OC` [Compound 11]?
**A.** IC50 [1]: 18.6 ± 0.43 µM; IC50 [2]: 10.2 ± 0.78 µM; IC50 [3]: 10.2 ± 0.45 µM; activities compared with 5-fluorouracil [4]: equal or better activities than 5-fluorouracil

**Q.** Which IC50 [1] does the source give for `CCc1cc(/C=C/C(=O)Nc2ccccc2C(=O)O[C@@]23CC[C@H](OC)[C@]45C([C@@H](C[C@H]24)[C@@]2(O)C[C@H](OC)C[C@H]4C[C@@H]5[C@]2(O)[C@H]4OC)N(CC)C3)ccn1` [Compound 12] here?
**A.** 21.7 ± 0.45 µM

**Q.** And the IC50 [2]?
**A.** 13.86 ± 0.1 µM

**Q.** And the IC50 [3]?
**A.** 25.05 ± 0.16 µM

**Q.** And the “activities compared with 5-fluorouracil” value [4]?
**A.** equal or better activities than 5-fluorouracil

**Q.** For `CCN1C[C@]2(OC(=O)c3ccccc3NC(=O)/C=C/c3cc(C)nc(C)c3)CC[C@H](OC)[C@]34C1[C@@H](C[C@H]23)[C@@]1(O)C[C@H](OC)C[C@H]2C[C@@H]4[C@]1(O)[C@H]2OC` [Compound 13], which IC50 [1] is on record?
**A.** 32.3 ± 1.34 µM

**Q.** What about the IC50 [2] of the same molecule?
**A.** 16.6 ± 1.87 µM

**Q.** What about the IC50 [3] of the same molecule?
**A.** 18 ± 0.58 µM

**Q.** With `CCN1C[C@]2(OC(=O)c3ccccc3NC(=O)/C=C/c3cc(C)ccn3)CC[C@H](OC)[C@]34C1[C@@H](C[C@H]23)[C@@]1(O)C[C@H](OC)C[C@H]2C[C@@H]4[C@]1(O)[C@H]2OC` [Compound 14] as the molecule, how does the IC50 [1] read?
**A.** 41.3 ± 1.42 µM

**Q.** What about the IC50 [2] of the same molecule?
**A.** 67.8 ± 1.3 µM

**Q.** And the IC50 [3]?
**A.** 87.02 ± 0.58 µM

**Q.** Which IC50 [1] does the source give for `CCc1ccnc(/C=C/C(=O)Nc2ccccc2C(=O)O[C@@]23CC[C@H](OC)[C@]45C([C@@H](C[C@H]24)[C@@]2(O)C[C@H](OC)C[C@H]4C[C@@H]5[C@]2(O)[C@H]4OC)N(CC)C3)c1` [Compound 15] here?
**A.** 47.3 ± 2.56 µM

**Q.** What about the IC50 [2] of the same molecule?
**A.** 44.1 ± 2.73 µM

**Q.** And the IC50 [3]?
**A.** 21.8 ± 1.2 µM

**Q.** `CCN1C[C@]2(OC(=O)c3ccccc3NC(=O)/C=C/c3cc(C)cc(C)n3)CC[C@H](OC)[C@]34C1[C@@H](C[C@H]23)[C@@]1(O)C[C@H](OC)C[C@H]2C[C@@H]4[C@]1(O)[C@H]2OC` [Compound 16] was tested. Which IC50 [1] did it give?
**A.** 69.3 ± 1.42 µM

**Q.** And the IC50 [2]?
**A.** 40.8 ± 2.55 µM

**Q.** What about the IC50 [3] of the same molecule?
**A.** > 100 µM

**Q.** What does the source list for `CCN1C[C@]2(OC(=O)c3ccccc3NC(=O)/C=C/c3cc(C(C)C)ccn3)CC[C@H](OC)[C@]34C1[C@@H](C[C@H]23)[C@@]1(O)C[C@H](OC)C[C@H]2C[C@@H]4[C@]1(O)[C@H]2OC` [Compound 17]?
**A.** IC50 [1]: > 100 µM; IC50 [2]: 61.3 ± 1.24 µM; IC50 [3]: > 100 µM

**Q.** How did the IC50 [1] turn out when `CCN1C[C@]2(OC(=O)c3ccccc3NC(=O)/C(C)=C/c3cccc(C)n3)CC[C@H](OC)[C@]34C1[C@@H](C[C@H]23)[C@@]1(O)C[C@H](OC)C[C@H]2C[C@@H]4[C@]1(O)[C@H]2OC` [Compound 18] was run?
**A.** > 100 µM

**Q.** And the IC50 [2]?
**A.** > 100 µM

**Q.** What about the IC50 [3] of the same molecule?
**A.** > 100 µM

**Q.** Which results are given for `CCN1C[C@]2(OC(=O)c3ccccc3NC(=O)/C=C/c3cccc(C)n3)CC[C@H](OC)[C@]34C1[C@@H](C[C@H]23)[C@@]1(O)C[C@H](OC)C[C@H]2C[C@@H]4[C@]1(O)[C@H]2OC` [Compound 19]?
**A.** IC50 [1]: > 100 µM; IC50 [2]: > 100 µM; IC50 [3]: 95.1 ± 1.92 µM
